Source: patent US9994515B2, “Aryl naphthyl methanone oxime(s) and process for preparation thereof” (Council of Scientific & Industrial Research, priority 2013, dated 2018)
Counter-ions that a name gives are not always drawn.

Tests used:
Ishikawa = experiment: MTT assay in Ishikawa endometrial adenocarcinoma cells; format: cell-based; conditions: Table 6, 48 h, 10 point dose response
MDA-MB231 = experiment: MTT assay in MDA-MB-231 breast tumor cells; format: cell-based; conditions: Table 6, 48 h, 10 point dose response
DU-145 = experiment: MTT assay in DU-145 prostate tumor cells; format: cell-based; conditions: Table 6, 48 h, 10 point dose response
MCF-7 = experiment: MTT assay in MCF-7 breast tumor cells; format: cell-based; conditions: Table 6, 48 h, 10 point dose response
K562 = experiment: MTT cytotoxicity assay in K562 cells; format: cell-based; conditions: Table 1, MTT assay after 48 h treatment
HL60 = experiment: MTT cytotoxicity assay in HL-60 cells; format: cell-based; conditions: Table 1, MTT assay after 48 h treatment
NIH3T3 = experiment: MTT cytotoxicity assay in NIH3T3 fibroblasts; format: cell-based, mouse; conditions: Table 1, MTT assay after 48 h treatment
Description: To consider a molecule as a candidate compound in cancer drug therapy, the test compound must have specific cytotoxicity towards the cancer cells without affecting normal cell growth. Therefore, all active compounds were assessed for toxicity in non-cancer cell-lines: mouse fibroblast cell line (NIH3T3) and monkey kidney epithelial cells (Vero). […] Therefore, based on safety index ([…]), 5d [Centans; based on IUPAC name prefixed with Central Drug Research Institute's signature (Cent)] was selected as a lead compound.

melting point [°C] | Compound | IC50 (K562; Homo sapiens, K562, 48 h) [µM] | IC50 (HL60; Homo sapiens, HL-60, 48 h) [µM] | IC50 (NIH3T3; Mus musculus, NIH3T3, 48 h) [µM] | other results
 | 4-hydroxy-tamoxifen [OH-TAM, reference compound] |  |  |  | IC50 (Ishikawa): 20 µM; IC50 (MDA-MB231): 8 µM; IC50 (DU-145): 10 µM; IC50 (MCF-7): 8.8 µM
155 | CSc1ccc(/C(=N/OCCN2CCCCC2)c2cccc3ccccc23)cc1 (as salt: oxalate) [Compound 5a, (4-(methylthio)phenyl)(naphthalen-1-yl)methanone O-2-(piperidin-1-yl)ethyl oxime oxalate] |  |  |  | 
153 | CSc1ccc(/C(=N/OCCN2CCCC2)c2cccc3ccccc23)cc1 (as salt: oxalate) [Compound 5b, (4-(methylthio)phenyl)(naphthalen-1-yl)methanone O-2-(pyrrolidin-1-yl)ethyl oxime oxalate] |  |  |  | 
105 | CSc1ccc(/C(=N/OCCN(C)C)c2cccc3ccccc23)cc1 (as salt: oxalate) [Compound 5c, (4-(methylthio)phenyl)(naphthalen-1-yl)methanone O-2-(dimethylamino)ethyl oxime oxalate] |  |  |  | 
101 | CSc1ccc(/C(=N/OC(C)CN(C)C)c2cccc3ccccc23)cc1 (stereo not drawn) (as salt: oxalate) [Compound 5g, (4-(methylthio)phenyl)(naphthalen-1-yl)methanone O-1-(dimethylamino)propan-2-yl oxime oxalate] |  |  |  | 
145 | CSc1ccc(/C(=N/OCCN2CCCCCC2)c2cccc3ccccc23)cc1 (as salt: oxalate) [Compound 5h, (4-(methylthio)phenyl)(naphthalen-1-yl)methanone O-2-(azepan-1-yl)ethyl oxime oxalate] |  |  |  | 
110 | CSc1ccc(/C(=N/OCCCN(C)C)c2cccc3ccccc23)cc1 (as salt: oxalate) [Compound 5m, (4-(methylthio)phenyl)(naphthalen-1-yl)methanone O-3-(dimethylamino)propyl oxime oxalate] |  |  |  | 
171 | COc1ccc(/C(=N/OCCN2CCCCC2)c2cccc3ccccc23)cc1 (as salt: oxalate) [Compound 6a, (4-methoxyphenyl)(naphthalen-1-yl)methanone O-2-(piperidin-1-yl)ethyl oxime oxalate] |  |  |  | 
158 | COc1ccc(/C(=N/OCCN2CCCC2)c2cccc3ccccc23)cc1 (as salt: oxalate) [Compound 6b, (4-methoxyphenyl)(naphthalen-1-yl)methanone O-2-(pyrrolidin-1-yl)ethyl oxime oxalate] |  |  |  | 
141 | COc1ccc(/C(=N/OCCN(C)C)c2cccc3ccccc23)cc1 (as salt: oxalate) [Compound 6c, (4-methoxyphenyl)(naphthalen-1-yl)methanone O-2-(dimethylamino)ethyl oxime oxalate] |  |  |  | 
137 | CCN(CC)CCO/N=C(/c1ccc(OC)cc1)c1cccc2ccccc12 (as salt: oxalate) [Compound 6d, (4-methoxyphenyl)(naphthalen-1-yl)methanone O-2-(diethylamino)ethyl oxime oxalate] |  |  |  | 
130 | COc1ccc(/C(=N/OCCN(C(C)C)C(C)C)c2cccc3ccccc23)cc1 (as salt: oxalate) [Compound 6e, (4-methoxyphenyl)(naphthalen-1-yl)methanone O-2-(diisopropylamino)ethyl oxime oxalate] |  |  |  | 
105 | COc1ccc(/C(=N/OC(C)CN(C)C)c2cccc3ccccc23)cc1 (stereo not drawn) (as salt: oxalate) [Compound 6f, (4-methoxyphenyl)(naphthalen-1-yl)methanone O-1-(dimethylamino)propan-2-yl oxime oxalate] |  |  |  | 
122 | COc1ccc(/C(=N/OCCN2CCCCCC2)c2cccc3ccccc23)cc1 (as salt: oxalate) [Compound 6g, (4-methoxyphenyl)(naphthalen-1-yl)methanone O-2-(azepan-1-yl)ethyl oxime oxalate] |  |  |  | 
155 | COc1ccc(/C(=N/OCCCN(C)C)c2cccc3ccccc23)cc1 (as salt: oxalate) [Compound 6i, (4-methoxyphenyl)(naphthalen-1-yl)methanone O-3-(dimethylamino)propyl oxime oxalate] |  |  |  | 
137 | CSc1ccc(/C(=N/OCCCN2CCCCC2)c2cccc3ccccc23)cc1 (as salt: oxalate) [Compound 7a, (4-(methylthio)phenyl)(naphthalen-1-yl)methanone O-3-(piperidin-1-yl)propyl oxime oxalate] |  |  |  | 

melting point [°C] | Compound | IC50 (K562; Homo sapiens, K562, 48 h) [µM] | IC50 (HL60; Homo sapiens, HL-60, 48 h) [µM] | IC50 (NIH3T3; Mus musculus, NIH3T3, 48 h) [µM] | other results
145 | CSc1ccc(/C(=N/OCCCN2CCC(C)CC2)c2cccc3ccccc23)cc1 (as salt: oxalate) [Compound 7c, (4-(methylthio)phenyl)(naphthalen-1-yl)methanone O-3-(4-methylpiperidin-1-yl)propyl oxime oxalate] |  |  |  | 
132 | COc1ccc(/C(=N/O)c2cccc3ccccc23)cc1 [Compound 4b, (4-methoxyphenyl)(naphthalen-1-yl)methanone oxime] | > 50 | > 50 | > 50 | 
 | CSc1ccc(/C(=N/OCCN(C(C)C)C(C)C)c2cccc3ccccc23)cc1 [Compound 5e, (4-(methylthio)phenyl)(naphthalen-1-yl)methanone O-2-(diisopropylamino)ethyl oxime] | 7 | 14 | 16 | 
 | CSc1ccc(/C(=N/OC(C)CN(C)C)c2cccc3ccccc23)cc1 (stereo not drawn) [Compound 5g, (4-(methylthio)phenyl)(naphthalen-1-yl)methanone O-1-(dimethylamino)propan-2-yl oxime oxalate] | > 50 | > 50 | > 50 | 
 | CSc1ccc(/C(=N/OCCN2CCCCCC2)c2cccc3ccccc23)cc1 [Compound 5h, (4-(methylthio)phenyl)(naphthalen-1-yl)methanone O-2-(azepan-1-yl)ethyl oxime oxalate] | > 50 | > 50 | > 50 | 
 | CCN(CC)CCO/N=C(/c1ccc(SC)cc1)c1cccc2ccccc12 [Compound 5i, (4-(methylthio)phenyl)(naphthalen-1-yl)methanone O-2-(diethylamino)ethyl oxime citrate] |  |  |  | IC50 (K562; citrate): > 30 µM; IC50 (HL60; citrate): > 50 µM; IC50 (NIH3T3; citrate): 40 µM
 | CCN(CC)CCO/N=C(/c1ccc(SC)cc1)c1cccc2ccccc12 [Compound 5k, (4-(methylthio)phenyl)(naphthalen-1-yl)methanone O-2-(diethylamino)ethyl oxime tartrate] |  |  |  | IC50 (K562; tartrate): > 50 µM; IC50 (HL60; tartrate): > 50 µM; IC50 (NIH3T3; tartrate): > 50 µM
 | CCN(CC)CCO/N=C(/c1ccc(SC)cc1)c1cccc2ccccc12 [Compound 5l, (4-(methylthio)phenyl)(naphthalen-1-yl)methanone O-2-(diethylamino)ethyl oxime] |  |  |  | IC50 (K562): > 50 µM; IC50 (HL60): > 50 µM; IC50 (NIH3T3): > 50 µM
 | CCOC(=O)CO/N=C(/c1ccc(SC)cc1)c1cccc2ccccc12 [Compound 5p, Ethyl 2-((4-(methylthio)phenyl) (naphthalen-1-yl)methyleneaminooxy) acetate] | > 50 | 15 | > 50 | 
 | CCN(CC)C(=O)CO/N=C(/c1ccc(SC)cc1)c1cccc2ccccc12 [Compound 5q, N,N-diethyl-2-((4-(methylthio)phenyl) (naphthalen-1-yl)methyleneaminooxy)acetamide] | > 50 | > 50 | > 50 | 
 | COc1ccc(/C(=N/OC(C)CN(C)C)c2cccc3ccccc23)cc1 (stereo not drawn) [Compound 6f, (4-methoxyphenyl)(naphthalen-1-yl)methanone O-1-(dimethylamino)propan-2-yl oxime oxalate] | > 50 | > 50 | > 50 | 
 | COc1ccc(/C(=N/OCCN2CCCCCC2)c2cccc3ccccc23)cc1 [Compound 6g, (4-methoxyphenyl)(naphthalen-1-yl)methanone O-2-(azepan-1-yl)ethyl oxime oxalate] | 6.66 | > 50 | 16 | 
 | COc1ccc(/C(=N/OCCN2CCOCC2)c2cccc3ccccc23)cc1 [Compound 6h, (4-methoxyphenyl)(naphthalen-1-yl)methanone O-2-morpholinoethyl oxime] | 19 | > 50 | 26 | 
 | CCCCN(C)CCCO/N=C(/c1ccc(SC)cc1)c1cccc2ccccc12 [Compound 7d, (4-(methylthio)phenyl)(naphthalen-1-yl)methanone O-3-(butyl(methyl)amino)propyl oxime] | > 50 | 13 | > 50 | 
 | CSc1ccc(/C(=N/OCCCCNCCc2ccccc2)c2cccc3ccccc23)cc1 [Compound 8c, (4-(methylthio)phenyl)(naphthalen-1-yl)methanone O-4-(phenethylamino)butyl oxime] | > 30 | > 50 | > 50 | 
 | CCN(CCCCO/N=C(/c1ccc(SC)cc1)c1cccc2ccccc12)Cc1ccccc1 [Compound 8d, (4-(methylthio)phenyl)(naphthalen-1-yl) methanone O-4-(benzyl(ethyl)amino)butyl oxime] | 16.3 | > 50 | > 50 | 
